Assays:
[1] = molecular target: T1, 5-hydroxytryptamine receptor 1A (Homo sapiens) (UniProt P08908); experiment: Agonist activity at recombinant human 5-HT1A assessed as induction of cAMP levels at 10 uM by HTRF assay relative to agonist; assay type: functional
T1 sequence (whole entry): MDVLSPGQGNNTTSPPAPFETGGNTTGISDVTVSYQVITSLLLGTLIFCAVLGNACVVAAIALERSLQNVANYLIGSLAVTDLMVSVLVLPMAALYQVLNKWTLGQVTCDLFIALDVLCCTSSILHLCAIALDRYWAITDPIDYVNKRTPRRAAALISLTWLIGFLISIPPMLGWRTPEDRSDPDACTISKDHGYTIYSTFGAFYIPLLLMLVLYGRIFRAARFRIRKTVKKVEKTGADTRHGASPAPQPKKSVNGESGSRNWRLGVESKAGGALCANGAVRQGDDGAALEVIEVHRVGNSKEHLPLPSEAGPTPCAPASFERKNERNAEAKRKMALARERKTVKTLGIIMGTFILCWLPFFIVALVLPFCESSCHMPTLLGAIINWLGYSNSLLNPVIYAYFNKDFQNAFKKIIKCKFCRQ

[2] = molecular target: T2, 5-hydroxytryptamine receptor 2C (Homo sapiens) (UniProt P28335); experiment: Antagonist activity at recombinant human 5-HT2C assessed as inhibition of agonist-induced effect at 10 uM by aequorin reporter based assay; assay type: functional
T2 sequence (whole entry): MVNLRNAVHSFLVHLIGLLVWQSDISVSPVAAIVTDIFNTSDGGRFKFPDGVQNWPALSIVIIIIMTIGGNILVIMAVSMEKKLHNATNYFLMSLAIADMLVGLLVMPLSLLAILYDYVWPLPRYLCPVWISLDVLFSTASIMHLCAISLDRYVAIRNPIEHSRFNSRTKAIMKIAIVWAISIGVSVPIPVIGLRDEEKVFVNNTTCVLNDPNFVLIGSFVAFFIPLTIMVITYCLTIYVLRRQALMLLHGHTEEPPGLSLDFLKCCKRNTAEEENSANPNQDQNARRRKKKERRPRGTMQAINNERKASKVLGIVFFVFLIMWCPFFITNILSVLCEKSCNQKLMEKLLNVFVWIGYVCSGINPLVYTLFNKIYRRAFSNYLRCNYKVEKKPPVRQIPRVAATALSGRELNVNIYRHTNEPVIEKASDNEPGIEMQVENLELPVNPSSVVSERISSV

[3] = molecular target: T3, 5-hydroxytryptamine receptor 3A (Homo sapiens) (UniProt P46098); experiment: Agonist activity at recombinant human 5-HT3 at 10 uM by aequorin reporter based assay relative to agonist
T3 sequence (whole entry): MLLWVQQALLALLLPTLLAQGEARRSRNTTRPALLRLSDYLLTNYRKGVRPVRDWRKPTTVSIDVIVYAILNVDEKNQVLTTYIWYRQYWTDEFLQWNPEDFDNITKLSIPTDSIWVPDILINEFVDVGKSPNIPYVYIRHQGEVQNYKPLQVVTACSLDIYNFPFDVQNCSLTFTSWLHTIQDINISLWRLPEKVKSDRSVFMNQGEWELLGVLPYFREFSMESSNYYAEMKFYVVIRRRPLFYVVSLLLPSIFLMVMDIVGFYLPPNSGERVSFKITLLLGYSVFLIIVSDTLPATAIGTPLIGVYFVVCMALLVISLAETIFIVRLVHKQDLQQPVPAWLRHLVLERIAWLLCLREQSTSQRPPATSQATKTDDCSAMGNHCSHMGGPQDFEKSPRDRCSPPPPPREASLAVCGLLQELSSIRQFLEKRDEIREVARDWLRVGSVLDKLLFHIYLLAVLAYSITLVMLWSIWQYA

[4] = molecular target: 5-hydroxytryptamine receptor 6 (Homo sapiens) (UniProt P50406); experiment: Antagonist activity at recombinant human 5-HT6R assessed as inhibition of agonist-induced cAMP induction at 10 uM by HTRF assay; assay type: functional
Chain of 5-hydroxytryptamine receptor 6 (Homo sapiens) (P50406 whole entry): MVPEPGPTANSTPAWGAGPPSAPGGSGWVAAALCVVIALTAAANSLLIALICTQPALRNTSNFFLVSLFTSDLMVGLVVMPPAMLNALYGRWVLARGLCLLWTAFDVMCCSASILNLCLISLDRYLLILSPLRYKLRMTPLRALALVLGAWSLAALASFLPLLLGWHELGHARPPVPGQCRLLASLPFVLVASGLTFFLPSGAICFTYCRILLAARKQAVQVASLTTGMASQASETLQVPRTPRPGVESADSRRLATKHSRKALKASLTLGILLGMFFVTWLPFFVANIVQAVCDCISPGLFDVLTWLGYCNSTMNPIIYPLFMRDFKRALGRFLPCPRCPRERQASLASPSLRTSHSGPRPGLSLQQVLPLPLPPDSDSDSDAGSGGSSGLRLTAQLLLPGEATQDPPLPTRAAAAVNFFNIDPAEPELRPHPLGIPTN

[5] = molecular target: Cannabinoid receptor 1 (Homo sapiens) (UniProt P21554); experiment: Agonist activity at recombinant human CB1 receptor […] at 10 uM by HTRF assay relative to agonist; assay type: functional
Chain of Cannabinoid receptor 1 (Homo sapiens) (P21554 whole entry): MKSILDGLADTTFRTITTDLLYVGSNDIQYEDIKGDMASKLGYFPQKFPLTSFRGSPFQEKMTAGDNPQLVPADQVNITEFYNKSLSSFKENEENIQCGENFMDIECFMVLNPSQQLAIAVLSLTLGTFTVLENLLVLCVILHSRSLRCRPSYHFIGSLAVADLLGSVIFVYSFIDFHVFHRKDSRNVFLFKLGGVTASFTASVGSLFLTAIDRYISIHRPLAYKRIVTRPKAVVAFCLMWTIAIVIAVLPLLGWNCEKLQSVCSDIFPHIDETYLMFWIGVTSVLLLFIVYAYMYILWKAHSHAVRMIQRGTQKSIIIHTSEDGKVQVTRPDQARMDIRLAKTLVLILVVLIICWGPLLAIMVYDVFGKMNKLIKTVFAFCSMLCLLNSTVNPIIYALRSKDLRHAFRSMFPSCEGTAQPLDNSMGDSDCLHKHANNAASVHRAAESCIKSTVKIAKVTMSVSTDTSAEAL

[6] = molecular target: Histamine H1 receptor (Homo sapiens) (UniProt P35367); experiment: Agonist activity at recombinant human histamine H1 receptor at 10 uM by aequorin reporter based assay relative to agonist; assay type: functional
Chain of Histamine H1 receptor (Homo sapiens) (P35367 whole entry): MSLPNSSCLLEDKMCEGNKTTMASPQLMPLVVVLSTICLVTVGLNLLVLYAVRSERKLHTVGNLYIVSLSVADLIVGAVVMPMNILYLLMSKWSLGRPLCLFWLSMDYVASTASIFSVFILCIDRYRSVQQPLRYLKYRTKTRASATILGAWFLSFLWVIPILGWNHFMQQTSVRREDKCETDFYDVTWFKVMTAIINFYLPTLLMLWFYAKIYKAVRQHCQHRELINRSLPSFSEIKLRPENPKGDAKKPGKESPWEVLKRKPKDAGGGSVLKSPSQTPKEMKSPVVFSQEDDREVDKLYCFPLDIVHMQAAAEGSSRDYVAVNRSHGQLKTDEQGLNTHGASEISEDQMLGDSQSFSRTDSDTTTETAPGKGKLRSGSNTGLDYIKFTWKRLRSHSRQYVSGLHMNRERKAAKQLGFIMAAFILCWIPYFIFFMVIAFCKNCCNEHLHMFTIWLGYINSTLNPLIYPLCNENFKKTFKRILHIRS

[7] = molecular target: T4, Substance-K receptor (Homo sapiens) (UniProt P21452); experiment: Agonist activity at recombinant human NK2R assessed at 10 uM by aequorin reporter based assay relative to agonist; assay type: functional
T4 sequence (whole entry): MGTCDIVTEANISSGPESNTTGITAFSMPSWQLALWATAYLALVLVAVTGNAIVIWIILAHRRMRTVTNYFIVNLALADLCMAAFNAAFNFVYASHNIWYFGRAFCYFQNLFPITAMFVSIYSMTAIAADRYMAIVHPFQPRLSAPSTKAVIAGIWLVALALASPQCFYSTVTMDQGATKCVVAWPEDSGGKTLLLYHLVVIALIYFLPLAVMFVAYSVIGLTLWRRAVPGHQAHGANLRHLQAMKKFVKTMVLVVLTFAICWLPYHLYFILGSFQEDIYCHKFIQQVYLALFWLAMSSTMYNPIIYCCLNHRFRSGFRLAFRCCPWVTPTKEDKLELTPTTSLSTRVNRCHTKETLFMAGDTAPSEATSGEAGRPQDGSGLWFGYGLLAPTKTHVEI

[8] = molecular target: T4, Substance-K receptor (Homo sapiens); experiment: Antagonist activity at recombinant human NK2R assessed as inhibition of agonist-induced effect at 10 uM by aequorin reporter based assay; assay type: functional
[9] = molecular target: T5, Vasoactive intestinal polypeptide receptor 1 (Homo sapiens) (UniProt P32241); experiment: Agonist activity at recombinant human VPAC1 receptor at 10 uM by aequorin reporter based assay relative to agonist; assay type: functional
T5 sequence (whole entry): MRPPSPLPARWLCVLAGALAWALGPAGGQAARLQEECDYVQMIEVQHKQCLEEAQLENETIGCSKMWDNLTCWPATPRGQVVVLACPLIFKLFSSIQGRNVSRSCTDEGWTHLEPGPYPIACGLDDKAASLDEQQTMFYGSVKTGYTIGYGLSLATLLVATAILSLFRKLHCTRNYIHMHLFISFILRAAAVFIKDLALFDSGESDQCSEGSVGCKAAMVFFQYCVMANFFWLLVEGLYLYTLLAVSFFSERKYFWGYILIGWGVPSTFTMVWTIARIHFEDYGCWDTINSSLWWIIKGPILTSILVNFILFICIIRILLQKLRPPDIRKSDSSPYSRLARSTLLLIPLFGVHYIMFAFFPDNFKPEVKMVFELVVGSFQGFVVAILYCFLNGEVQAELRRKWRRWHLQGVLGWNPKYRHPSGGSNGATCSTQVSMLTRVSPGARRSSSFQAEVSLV

CN(CCNC(=O)c1ccc([N+](=O)[O-])cc1)Cc1ccccc1
Activity [1]: 4%
inhibition [2]: 80%
Activity [3]: 0%
inhibition [4]: 3%
Activity [5]: 8%
Activity [6]: 0%
Activity [7]: 0%
inhibition [8]: 15%
Activity [9]: 0%

CN(CCCNC(=O)c1ccc(C(F)(F)F)cc1)Cc1ccccc1
Activity [1]: -5%
inhibition [2]: 24%
Activity [3]: -1%
inhibition [4]: 1%
Activity [5]: -12%
Activity [6]: 0%
Activity [7]: 0%
inhibition [8]: 6%
Activity [9]: 0%

CN(CCCNC(=O)c1ccc(Cl)cc1)Cc1ccccc1
Activity [1]: 3%
inhibition [2]: 43%
Activity [3]: 2%
inhibition [4]: -6%
Activity [5]: 3%
Activity [6]: 1%
Activity [7]: 0%
inhibition [8]: 18%
Activity [9]: 0%

CCCc1ccc(C(=O)NCCCN(C)Cc2ccccc2)cc1
Activity [1]: -4%
inhibition [2]: 94%
Activity [3]: -1%
inhibition [4]: 1%
Activity [5]: -16%
Activity [6]: 0%
Activity [7]: 0%
inhibition [8]: 5%
Activity [9]: -1%

CN(CCNC(=O)c1ccc(C#N)cc1)Cc1ccccc1
Activity [1]: 4%
inhibition [2]: 34%
Activity [3]: 0%
inhibition [4]: -2%
Activity [5]: -1%
Activity [6]: 0%
Activity [7]: 0%
inhibition [8]: 29%
Activity [9]: -1%

COc1cccc(C(=O)NCCCN(C)Cc2ccccc2)c1
Activity [1]: 0%
inhibition [2]: 36%
Activity [3]: 0%
inhibition [4]: -1%
Activity [5]: 6%
Activity [6]: 14%
Activity [7]: 0%
inhibition [8]: 19%
Activity [9]: 0%

CN(CCCNC(=O)c1ccc(Cl)cc1)CCc1ccccc1
Activity [1]: 32%
inhibition [2]: 95%
Activity [3]: -1%
inhibition [4]: 3%
Activity [5]: -3%
Activity [6]: 12%
Activity [7]: 0%
inhibition [8]: 5%
Activity [9]: 1%

CN(CCCNC(=O)c1ccc([N+](=O)[O-])cc1)Cc1ccccc1
Activity [1]: -1%
inhibition [2]: 11%
Activity [3]: 0%
inhibition [4]: -4%
Activity [5]: 3%
Activity [6]: 0%
Activity [7]: 0%
inhibition [8]: 9%
Activity [9]: -1%

COc1ccc(C(=O)NCCCN(C)Cc2ccccc2)cc1
Activity [1]: -2%
inhibition [2]: 33%
Activity [3]: 0%
inhibition [4]: 0%
Activity [5]: 6%
Activity [6]: 0%
Activity [7]: 0%
inhibition [8]: 22%
Activity [9]: 0%

CN(CCCNC(=O)c1cccc(Br)c1)Cc1ccccc1
Activity [1]: -4%
inhibition [2]: 54%
Activity [3]: 0%
inhibition [4]: -2%
Activity [5]: -16%
Activity [6]: 35%
Activity [7]: 1%
inhibition [8]: 9%
Activity [9]: -1%

CN(CCNC(=O)c1ccc(Cl)cc1)Cc1ccccc1
Activity [1]: 3%
inhibition [2]: 92%
Activity [3]: 0%
inhibition [4]: -3%
Activity [5]: -7%
Activity [6]: 0%
Activity [7]: 1%
inhibition [8]: 6%
Activity [9]: -1%

CN(CCCNC(=O)c1ccc(Br)cc1)Cc1ccccc1
Activity [1]: 0%
inhibition [2]: 34%
Activity [3]: 1%
inhibition [4]: -1%
Activity [5]: -11%
Activity [6]: 1%
Activity [7]: 0%
inhibition [8]: 7%
Activity [9]: 0%

From ChEMBL document CHEMBL4130363, “Synthesis and pharmacological evaluation of benzamide derivatives as potent and selective sigma-1 protein ligands” (Eur J Med Chem, 2017)
